# In patent US20060127505A1, “Anti-inflammatory formulations” (priority 2002, published 2006):
# “Also recorded” adds a separate entry of the source. Where a name gives a salt, the structure may show the parent alone. Marks after values point to notes of the source that are not given here.
# Legend:
# [1] = system: CD3+CD25+ T lymphocytes in human PBMC; assay: PHA induction of CD25+ on CD3+ T cells, PBMC from asthma patients (Example 5); assay type: cell-based; conditions: for SI CD25: PHA 50 μg/ml, 24 hours
# Description: (§1) Experiments were carried out to determine whether the immunoregulatory capacity of two commonly-used H1-inhibitory antihistamines: cetirizine dihydrochloride (CTZ/Zyrtec) and azelastine ([…]) is potentiated by the platelet activating factor receptor (PAFR) antagonist and free radical scavenger Ginkgolide B (GB). […] Each drug was first evaluated independently over a 3-log dose range from 10^-8-10^-6 M.
# [2] = system: CD3+HLA-DR+ T lymphocytes in human PBMC; assay: PHA induction of HLA-DR+ on CD3+ T cells, PBMC from asthma patients (Example 5); assay type: cell-based; conditions: for SI HLA-DR: PHA 50 μg/ml, 24 hours
# Description: as §1
# [3] = system: CD3+CD25+ cells in human PBMC; assay: T lymphocyte activation (CD3+CD25+) in PHA-stimulated PBMC of asthma patients (Example 6); assay type: cell-based; conditions: PHA 50 μg/ml, 24 hours; 10^−5 M
# Description: Experiments were carried out to determine whether formulations based on the platelet activating factor receptor (PAFR) antagonist and free radical scavenger Ginkgolide B (GB) in combination with the antioxidant carotenoid astaxanthin (ASX) suppress T cell activation in the same dose range as two commonly-used antihistamines: cetirizine dihydrochloride (CTZ/Zyrtec) and azelastine ([…]). […] Results are reported as stimulation indices (SI) of % CD3+CD25+ cells in cultures treated with PHA alone to % CD3+CD25+ cells in each drug-supplemented culture. […] Subjects for this study included 12 patients diagnosed with atopic asthma, 7 male and 5 female, ranging in age from 21 to 40 years (mean 28±1.8 years). Disease duration ranged from 2 to 12 years. Atopy was defined on the basis of one or more positive skin prick tests to a range of 20 allergens. None of the patients had received systemic therapy for at least 6 weeks prior to blood collection. The mean serum IgE was 335 (170-480) IU/ml. Venous blood for each subject was collected in polyethylene tubes containing EDTA during a one hour morning time interval. PBMC were separated by Ficoll-paque (Pharmacia, Uppsala, Sweden) density gradient centrifugation. Cells were washed and suspended in RPMI 1640 medium (Gibco BRL, Gaithersburg, Md.) at density of 1×10^6 cells/ml. PBMC were stimulated with 50 μg/ml Phytohemaglutinin (PHA) (Sigma Immunopharmaceuticals, St. Lous Mo.), or PHA plus 10^-8-10^-5 M astaxanthin (Natural Alternatives International (NAI) Inc., San Marcos Calif.); or ginkgolide B 10^-8-10^-6 M (NAI San Marcos Calif.); or selected combinations of ASX plus GB. Comparison of ASX and GB effects on T cell activation were made with two other pharmacological agents with anti-asthmatic properties by treating cells with 10^-7-10^-4 M cetirizine dihydrochloride (Pfizer Pharmaceuticals, Norwich Conn.); or 10^-7-10^-4 M azalestine hydrochloride (Wallace Pharmaceuticals, Somerset N.J.), followed by evaluation of cultures for the same biological endpoints as ASX/GB-treated cells. Each reagent was added at the outset of a 24 hours culture period, followed by harvest of cellular fraction for immunophenotyping studies. […] Two-color Flow cytometry was conducted using a Coulter Epics XL automated flow cytometer (Coulter Scientific, Hialeah, Fla., USA). Isotypic controls for the monoclonal antibodies (mAb) used to detect antigens of interest were established for each cell preparation. Positive analysis regions for cells expressing specific surface markers were set against controls and specific binding of fluorophore-conjugated mAb was analyzed by cytofluorography according to standard methods recommended by the manufacturer. Lymphocyte subpopulations were identified by position on forward and side scatter plots and live-gated. Expression of each antigen was reported as percentage cells positive for a particular T cell subpopulation defined by expression of CD3 (T lymphocyte marker) plus CD25, plus or minus standard error. Statistical analysis was performed using an independent t-test. All statistical analyses were performed using the SPSS for Windows statistical package (Norusis/SPSS, Inc.). […] The capacity of formulations evaluated in this study to suppress immune activation was measured as a stimulation index (SI), defined as the ratio of […].
# [4] = system: cAMP and cGMP concentrations in the lung tissue; assay: Ovalbumin-induced asthma in guinea pigs: cAMP and cGMP in lung tissue (radioimmunoassay); assay type: in vivo, guinea pig; conditions: lung tissue 24 hours after OV challenge
# Description: The effect combinations of vitamin C, astaxanthin, and ginkolide on asthma-associated disease parameters ovalbumin(OA)-induced asthma in guinea pigs was evaluated. Twenty-four hours following OA challenge, animals are sacrificed and numbers of inflammatory cells (eosinophils, neutrophils, macrophages) are measured in bronchoalveolar lavage (BAL) fluid; and cAMP and cGMP concentrations in the lung tissue. The experiments were carried out as follows. Male Hartley guinea pigs (250-350 g) were sensitized by intramuscular injections of 0.35 ml of a 5% (W/V) ovalbumin (OA)/saline solution into each thigh on days 1 and 4. Guinea pigs were ready for asthmatic challenge after 25 days of ovalbumin injection. Asthmatic challenge was carried out with ovalbumin aerosol, and bronchoalveolar lavage (BAL) was done 24 hours later. The numbers of eosinophils, neutrophils, and macrophages in the BAL fluid were counted. Biopsies from lung tissues, cAMP and cGMP were measured using commercially available radioimmunoassay kits (Amersham). Immediately after sampling, lung biopsies were frozen by means of a Wollenberger clamp prechilled in liquid nitrogen. Samples were powdered with a pestle and mortar in liquid nitrogen and trichloro acetic acid (TCA) was added to the powdered frozen samples ([…] of tissue). Samples were further homogenized in the frozen TCA in the braying mortar and then centrifuged at 14,000×g for 10 min at 4° C. The supernatants were extracted 6 times in water-saturated diethylether, evaporated and assayed for cGMP by radioimmunoassay using liquid scintillation counter (Packard, Tri-Carb 2100TR). The dose-responsive effect of AX, EGb761, and vitamin C administered independently for suppression of asthma-associated parameters in allergen-induced, asthmatic guinea pigs was determined. Ibuprophen (IB) was used as the positive control. Concentration of inflammatory cells in bronchoalveolar lavage (BAL) fluid and levels of cAMP and cGMP in lung tissue were measured in guinea pigs 24 hours following challenge with OV. […] The dose-responsive effect of AX, EGb761, and vitamin C administered in combination for suppression of asthma-associated parameters in allergen-induced, asthmatic guinea pigs was determined. The combination of these three components was given each day for each guinea pig as a “cocktail”. Concentration of inflammatory cells in bronchoalveolar lavage (BAL) fluid and levels of cAMP and cGMP in lung tissue were measured in guinea pigs 24 hours following challenge with OV.
# [5] = system: ovalbumin(OA)-induced asthma in guinea pigs; assay: Ovalbumin-induced asthma in guinea pigs: inflammatory cells in BAL fluid; assay type: in vivo, guinea pig; conditions: for Eosinophils / Macrophages / Neutrophils: BAL fluid 24 hours after OV challenge
# Description: The effect combinations of vitamin C, astaxanthin, and ginkolide on asthma-associated disease parameters ovalbumin(OA)-induced asthma in guinea pigs was evaluated. Twenty-four hours following OA challenge, animals are sacrificed and numbers of inflammatory cells (eosinophils, neutrophils, macrophages) are measured in bronchoalveolar lavage (BAL) fluid; and cAMP and cGMP concentrations in the lung tissue. The experiments were carried out as follows. Male Hartley guinea pigs (250-350 g) were sensitized by intramuscular injections of 0.35 ml of a 5% (W/V) ovalbumin (OA)/saline solution into each thigh on days 1 and 4. Guinea pigs were ready for asthmatic challenge after 25 days of ovalbumin injection. Asthmatic challenge was carried out with ovalbumin aerosol, and bronchoalveolar lavage (BAL) was done 24 hours later. The numbers of eosinophils, neutrophils, and macrophages in the BAL fluid were counted. Twenty-four hours after the aerosol OA challenge, guinea pigs were killed by cervical dislocation and exsanguinated by severing the axillary arteries. Lungs were lavaged with 50 ml of DulBecco's phosphate-buffered saline (aliquots of 10 ml), which were aspirated after gentle chest massage. BAL fluid was centrifuged at 2200 rpm (1100×g) for 10 min, supernatant was aspirated, and pellets were resuspended in 5 ml 0.25% NaCl to lyse residual erythrocytes. This dispersion was centrifuged at 2200 rpm (1100×g) for 10 min, supernatant was aspirated, and pellets were resuspended 5 ml 0.9% NaCl. Total cell counts were done by hemocytometry using trypan blue stain. Slides were prepared on a Shandon Cytospin 2 (Pittsburgh, Pa.) at 300 rpm for 5 min, fixed and stained. Differential cell counts were done using standard morphologic criteria to classify cells as eosinophils, neutrophils, or macrophages, and the results were expressed in cell numbers. The dose-responsive effect of AX, EGb761, and vitamin C administered independently for suppression of asthma-associated parameters in allergen-induced, asthmatic guinea pigs was determined. Ibuprophen (IB) was used as the positive control. Concentration of inflammatory cells in bronchoalveolar lavage (BAL) fluid and levels of cAMP and cGMP in lung tissue were measured in guinea pigs 24 hours following challenge with OV. Data is reported as mean±SD of measurements taken in 6 animals per dosage cohort. *p<0.05 compared to corresponding values of OV antigen-challenged, drug-free control group. The dose-responsive effect of AX, EGb761, and vitamin C administered in combination for suppression of asthma-associated parameters in allergen-induced, asthmatic guinea pigs was determined. The combination of these three components was given each day for each guinea pig as a “cocktail”. Concentration of inflammatory cells in bronchoalveolar lavage (BAL) fluid and levels of cAMP and cGMP in lung tissue were measured in guinea pigs 24 hours following challenge with OV. Data is reported as mean±SD of measurements taken in 6 animals per dosage cohort. *p<0.05 compared to corresponding values of OV antigen-challenged, drug-free control group.
smiles,measurement,setting,value
"O=C(O)COCCN1CCN(C(c2ccccc2)c2ccc(Cl)cc2)CC1 (centres unmarked) [CTZ, cetirizine dihydrochloride]",decrease in SI for CD25+,[1]; 10^−8 M,29%
same,SI CD25,[1]; 10^−6 M,0.93 ± 0.06
same,SI CD25,[1]; 10^−7 M,0.88 ± 0.14
same,SI CD25,[1]; 10^−8 M,0.71 ± 0.12
same,decrease in SI for HLA-DR,[2]; 10^−8 M,53%
same,SI HLA-DR,[2]; 10^−6 M,0.70 ± 0.04
same,SI HLA-DR,[2]; 10^−7 M,0.58 ± 0.11
same,SI HLA-DR,[2]; 10^−8 M,0.47 ± 0.13
same,SI (CD3+CD25+),[3],0.78±0.11
"O=C1O[C@H]([C@@H](O)CO)C(O)=C1O [Vitamin C, ascorbic acid]",cAMP,[4]; 50 mg/kg,6.8 ± 0.5 pmol (mg protein)^−1
same,cGMP,[4]; 50 mg/kg,1.1 ± 0.2 pmol (mg protein)^−1
same,cAMP,[4]; 100 mg/kg,7.1 ± 0.8 pmol (mg protein)^−1
same,cGMP,[4]; 100 mg/kg,1.0 ± 0.2 pmol (mg protein)^−1
same,cAMP,[4]; 200 mg/kg,7.9 ± 0.9 pmol (mg protein)^−1
same,cGMP,[4]; 200 mg/kg,1.2 ± 0.2 pmol (mg protein)^−1
same,cAMP,[4]; 400 mg/kg,7.9 ± 0.8 pmol (mg protein)^−1
same,cGMP,[4]; 400 mg/kg,1.5 ± 0.2 pmol (mg protein)^−1
same,Eosinophils,[5]; 50 mg/kg,5.5 ± 0.5 cell × 10^6/animal
same,Macrophages,[5]; 50 mg/kg,9.5 ± 0.9 cell × 10^6/animal
same,Neutrophils,[5]; 50 mg/kg,5.4 ± 0.6 cell × 10^5/animal
same,Eosinophils,[5]; 100 mg/kg,5.5 ± 0.8 cell × 10^6/animal
same,Macrophages,[5]; 100 mg/kg,9.8 ± 0.9 cell × 10^6/animal
same,Neutrophils,[5]; 100 mg/kg,5.6 ± 0.8 cell × 10^5/animal
same,Eosinophils,[5]; 200 mg/kg,4.8 ± 1.1 cell × 10^6/animal
same,Macrophages,[5]; 200 mg/kg,9.2 ± 0.8 cell × 10^6/animal
same,Neutrophils,[5]; 200 mg/kg,5.0 ± 0.8 cell × 10^5/animal
same,Eosinophils,[5]; 400 mg/kg,3.5 ± 0.9* cell × 10^6/animal
same,Macrophages,[5]; 400 mg/kg,7.2 ± 1.5* cell × 10^6/animal
same,Neutrophils,[5]; 400 mg/kg,4.7 ± 0.9 cell × 10^5/animal
same,protection against OV-induced asthma,"[5]; components used separately: 10 mg/kg AX, 200 mg/kg vit C, 10 mg/kg GB",failed to protect; also recorded: failed to reduce the severity of asthma
"CN1CCCC(n2nc(Cc3ccc(Cl)cc3)c3ccccc3c2=O)CC1 (centres unmarked) [AZE, azelastine]",decrease in SI for CD25+,[1]; 10^−8 M,19%
same,SI CD25,[1]; 10^−6 M,1.13 ± 0.15
same,SI CD25,[1]; 10^−7 M,0.88 ± 0.08
same,SI CD25,[1]; 10^−8 M,0.81 ± 0.08
same,decrease in SI for HLA-DR,[2]; 10^−8 M,45%
same,SI HLA-DR,[2]; 10^−6 M,0.61 ± 0.13
same,SI HLA-DR,[2]; 10^−7 M,0.56 ± 0.10
same,SI HLA-DR,[2]; 10^−8 M,0.55 ± 0.09
same,SI (CD3+CD25+),[3],0.76±0.12
"CC(C)Cc1ccc(C(C)C(=O)O)cc1 (centres unmarked) [IB, Ibuprophen, reference compound]",cAMP,[4]; 10 mg/kg,7.1 ± 0.6 pmol (mg protein)^−1
same,cGMP,[4]; 10 mg/kg,1.1 ± 0.2 pmol (mg protein)^−1
same,cAMP,[4]; 100 mg/kg,7.3 ± 0.9 pmol (mg protein)^−1
same,cGMP,[4]; 100 mg/kg,1.1 ± 0.2 pmol (mg protein)^−1
same,cAMP,[4]; 500 mg/kg,8.2 ± 0.8 pmol (mg protein)^−1
same,cGMP,[4]; 500 mg/kg,1.4 ± 0.2 pmol (mg protein)^−1
same,cAMP,[4]; 1000 mg/kg,8.1 ± 0.9 pmol (mg protein)^−1
same,cGMP,[4]; 1000 mg/kg,1.6 ± 0.2 pmol (mg protein)^−1
same,Eosinophils,[5]; 10 mg/kg,5.4 ± 0.8 cell × 10^6/animal
same,Macrophages,[5]; 10 mg/kg,9.5 ± 0.8 cell × 10^6/animal
same,Neutrophils,[5]; 10 mg/kg,5.7 ± 0.7 cell × 10^5/animal
same,Eosinophils,[5]; 100 mg/kg,4.7 ± 0.6 cell × 10^6/animal
same,Macrophages,[5]; 100 mg/kg,9.0 ± 1.3 cell × 10^6/animal
same,Neutrophils,[5]; 100 mg/kg,5.0 ± 0.7 cell × 10^5/animal
same,Eosinophils,[5]; 500 mg/kg,3.0 ± 0.8* cell × 10^6/animal
same,Macrophages,[5]; 500 mg/kg,4.7 ± 1.3* cell × 10^6/animal
same,Neutrophils,[5]; 500 mg/kg,3.1 ± 0.9* cell × 10^5/animal
same,Eosinophils,[5]; 1000 mg/kg,2.9 ± 0.5* cell × 10^6/animal
same,Macrophages,[5]; 1000 mg/kg,4.3 ± 0.9* cell × 10^6/animal
same,Neutrophils,[5]; 1000 mg/kg,3.1 ± 0.5* cell × 10^5/animal
